Common to all, as to experiment: NCI-60 cell line screen, 48 h
Test [1] concerns EKVX.
Test [2] has as its system OVCAR-4.
Test [3] relates to RPMI-8226.
Test [4] deals with NCI/ADR-RES.
The test system of test [5] is IGROV-1.
In test [6] the test system is HCT-15.
For test [7], the system named is OVCAR-5.
In test [8] the test system is BT-549.
Test [9] has as its system NCI-H460.
In test [10] the test system is SK-OV-3.
The subject of test [11] is HL-60.
Test [12] has as its system CCRF-CEM.
For test [13], the system named is U-251.
The subject of test [14] is HOP-62.
For test [15], the system named is SN12C.
The test system of test [16] is MDA-MB-435.
The subject of test [17] is SK-MEL-5.
Test [18] has as its system SF-539.
Test [19] has as its system SNB-75.
Test [20] relates to Malme-3M.

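Each compound was tested at five concentrations against cells in 96-well plates for 48 hours. Here, GI50 denotes the concentration required for 50% inhibition of growth.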 Activity calls are given as the source filed them. Rule as the data show it: active = GI50 up to about 1.1 µM and inactive = higher.

For `Nc1nc(N)c2nn(-c3ccc(C(=O)O)cc3)nc2n1`, the GI50 is > 100 µM (inactive) in test [1]; > 100 µM (inactive) in test [2]; > 100 µM (inactive) in test [3]; > 100 µM (inactive) in test [4]; > 100 µM (inactive) in test [5]; > 100 µM in test [6]. Besides, the GI50 was > 100 µM (inactive) in [7]; > 100 µM (inactive) in test [8]; > 100 µM (inactive) in [9]; > 100 µM (inactive) in test [10]; 72.1 µM (inactive) in test [11]; > 100 µM (inactive) in test [12]. For the same compound, the GI50 in [13], in [14], in [15], in test [16], in [17] and in test [18] was > 100 µM (inactive) each time. The GI50 in test [19] is > 100 µM (inactive).

Turning to `Fc1ccc(OCc2ccc3nc(-c4ccccc4)c(Cl)nc3c2)cc1`, the GI50 was 39.6 µM (inactive) in test [1]; 39.5 µM (inactive) in test [2]; 96.2 µM (inactive) in test [3]; 34.1 µM (inactive) in test [4]; 25.1 µM (inactive) in test [5]; > 100 µM in test [6]. The GI50 is 41.7 µM (inactive) in [7]; 31.1 µM (inactive) in test [8]; 30.1 µM (inactive) in test [9]; 33.3 µM (inactive) in test [11]; 25.7 µM (inactive) in test [12]; 16.8 µM (inactive) in test [13]. For the same compound, the GI50 in test [14] was 16.3 µM (inactive); in test [15], 56.6 µM (inactive); in [20], 9.44 µM (inactive); in test [16], 91.4 µM (inactive); in test [17] it was 17 µM (inactive); in test [18] it was 16 µM (inactive). Moreover, the GI50 in test [19] is 16.7 µM (inactive).

With `O=c1[nH]nc(Cc2ccccc2)n1/N=C\c1ccccc1`, the GI50 is > 100 µM (inactive) in [1]; > 100 µM (inactive) in test [2]; > 100 µM (inactive) in [3]; > 100 µM (inactive) in [4]; 84.7 µM (inactive) in [5]; > 100 µM in test [6]. Besides, the GI50 in [7] was > 100 µM (inactive); in test [8] it was > 100 µM (inactive); in test [9], > 100 µM (inactive); in [11], > 100 µM (inactive); in test [12], > 100 µM (inactive); in test [13] it was 37.1 µM (inactive). Further, the GI50 in test [14] is 56.6 µM (inactive); in test [15], > 100 µM (inactive); in test [20] it was > 100 µM (inactive); in test [16], > 100 µM (inactive); in test [17], > 100 µM (inactive); in test [18], > 100 µM (inactive). Further, in test [19], the GI50 is 32.3 µM (inactive).

`N=C(N)c1ccc2oc3ccc(C(=N)N)cc3c(=O)c2c1`: the GI50 in [2] is > 100 µM (inactive); in [3], > 100 µM (inactive); in [4], > 100 µM (inactive); in test [5] it was > 100 µM (inactive); in [6], > 100 µM; in test [7] it was > 100 µM (inactive). In addition, the GI50 in test [8], in test [9], in test [11], in [12], in test [13] and in [15] was > 100 µM (inactive) each time. The GI50 is 98.2 µM (inactive) in test [20]; > 100 µM (inactive) in test [16]; > 100 µM (inactive) in [17]; > 100 µM (inactive) in [18]; > 100 µM (inactive) in test [19].

For the compound `CC1=NN(c2nc(N)nc(/C(C#N)=C/c3ccccc3O)n2)C(C)(C)C1`, the GI50 in test [1] is 16 µM (inactive); in [2], 19 µM (inactive); in [3], 17 µM (inactive); in test [4], 21.4 µM (inactive); in test [5] it was 23.1 µM (inactive); in [6], 19.4 µM. In addition, the GI50 in test [7] was 15.4 µM (inactive); in test [8], 36.2 µM (inactive); in test [9] it was 19.4 µM (inactive); in [10] it was 23.1 µM (inactive); in test [11], 30.3 µM (inactive); in test [12], 18 µM (inactive). Besides, the GI50 was 18.4 µM (inactive) in test [13]; 20.5 µM (inactive) in test [14]; 25.5 µM (inactive) in test [15]; 18.7 µM (inactive) in test [20]; 17.3 µM (inactive) in [16]; 15.5 µM (inactive) in test [17]. In [18], the GI50 was 16.9 µM (inactive).

For the compound `Oc1nncc2[nH]c(-c3ccccc3)cc12`, the GI50 was 21.9 µM (inactive) in test [1]; 55.1 µM (inactive) in test [2]; 56.4 µM (inactive) in test [3]; 25.2 µM (inactive) in test [4]; > 100 µM (inactive) in [5]; 45.8 µM in test [6]. Besides, the GI50 in test [7] is 95.1 µM (inactive); in [8] it was 37.8 µM (inactive); in test [9], 45.5 µM (inactive); in test [10], 63.7 µM (inactive); in [11], 71.9 µM (inactive); in test [12], 36.7 µM (inactive). Besides, the GI50 in test [13] was 52 µM (inactive); in test [14], 61.5 µM (inactive); in test [15], 54.1 µM (inactive); in test [20], 56.9 µM (inactive); in [16] it was 28.2 µM (inactive); in test [17] it was 23.3 µM (inactive). In addition, the GI50 in [19] was 22.9 µM (inactive).

As to `CC(C)C/C=C/C1=NN(c2cccc(S(=O)(=O)O)c2)C2(C1)SCC(=O)N2c1nc2ccccc2s1` (centres undefined), the GI50 in test [1] is > 100 µM (inactive); in test [2], 61.7 µM (inactive); in test [3] it was 21.6 µM (inactive); in test [4] it was 71.6 µM (inactive); in test [5] it was 36.8 µM (inactive); in test [6], 91.6 µM. The GI50 in test [7] was > 100 µM (inactive); in test [8], 83.2 µM (inactive); in test [9] it was 38 µM (inactive); in test [11], 29.9 µM (inactive); in [12], 23.3 µM (inactive); in test [13] it was 30.1 µM (inactive). The GI50 in test [15] is 31.9 µM (inactive); in test [20] it was 93.1 µM (inactive); in test [16] it was 31.1 µM (inactive); in test [17], 64 µM (inactive); in test [18] it was 61.4 µM (inactive); in test [19], 97.5 µM (inactive).

Regarding `CC(=O)OCC1OC(Oc2cc(C)c(O)cc2C/C=C(\C)CC/C=C(\C)CC(=O)CC(C)C)C(O)C(OC(C)=O)C1OC(C)=O` (centres undefined), the GI50 in test [1] was 4.6 µM (inactive); in [2], 19.6 µM (inactive); in test [3] it was 9.16 µM (inactive); in test [4], 11.4 µM (inactive); in test [5], 29.4 µM (inactive); in [6] it was 14.3 µM. The GI50 in test [7] was 1.83 µM (inactive); in [8], 10.6 µM (inactive); in [9], 13.7 µM (inactive); in test [10], 26.2 µM (inactive); in [11], 10.8 µM (inactive); in test [12] it was 9.82 µM (inactive). Also, the GI50 in test [13] was 13.6 µM (inactive); in test [14], 11.4 µM (inactive); in test [15] it was 15.2 µM (inactive); in test [20] it was > 50 µM (inactive); in test [16] it was 15 µM (inactive); in [17], 8.13 µM (inactive). Besides, in test [19], the GI50 was > 50 µM (inactive).

Take `CC(C)C(C=O)C(O)(C(F)(F)F)C(F)(F)F` (centres undefined): the GI50 in test [1] was > 100 µM (inactive); in [2], > 100 µM (inactive); in [3], > 100 µM (inactive); in [4] it was > 100 µM (inactive); in test [5] it was > 10 µM (inactive); in test [6], > 100 µM. For the same compound, the GI50 in test [7] is > 100 µM (inactive); in test [8], > 100 µM (inactive); in [9], > 100 µM (inactive); in test [10], > 100 µM (inactive); in test [11] it was > 100 µM (inactive); in test [12], > 10 µM (inactive). Further, the GI50 in test [13] was > 100 µM (inactive); in test [20], > 100 µM (inactive); in [16] it was > 100 µM (inactive); in [17], > 100 µM (inactive); in [18], > 100 µM (inactive); in [19] it was 11.3 µM (inactive).

As to `CC(C)(C)OC(=O)NCC(CNC(=O)OC(C)(C)C)C(N)=O`, the GI50 is > 100 µM (inactive) in test [1]; > 100 µM (inactive) in test [2]; > 100 µM (inactive) in test [3]; > 100 µM (inactive) in test [4]; > 100 µM (inactive) in test [5]; > 100 µM in [6]. Further, the GI50 in [7], in test [8], in test [9], in [10], in test [11] and in test [12] was > 100 µM (inactive) throughout. Also, the GI50 in test [13], in test [14], in test [15], in test [20], in [16] and in [17] was > 100 µM (inactive) in each case. The GI50 in [18] was > 100 µM (inactive).

Take `Cc1cc(C(=C2C=CC(=N)C=C2)c2ccc(N)cc2)ccc1N` [FUCHSIN, BASIC]: the GI50 in test [1] is 6.04 µM (inactive); in test [2], 8.43 µM (inactive); in test [3], 2.42 µM (inactive); in [4], 11.7 µM (inactive); in test [5], 10.7 µM (inactive); in [6] it was 12 µM. Further, the GI50 in test [7] is 11.4 µM (inactive); in test [8], 0.82 µM (active); in test [9], 2.52 µM (inactive); in [10] it was 3.58 µM (inactive); in test [11], 3.21 µM (inactive); in test [12], 4.19 µM (inactive). In addition, the GI50 in [14] is 0.724 µM (active); in test [15], 0.299 µM (active); in [20] it was 2.65 µM (inactive); in test [16], 4.08 µM (inactive); in test [17], 1.46 µM (inactive); in test [18], 0.706 µM (active).

Source of the values: ChEMBL document CHEMBL1201862, “PubChem BioAssay data set” (2004).
